Assay results reported in patent US6291676A, “Water-soluble derivatives of camptothecin/homocamptothecin” (priority 2000, dated 2001).

Tests used:
[1] = Stability of the lactone form of CT-17 free and in liposomes in PBS, plasma, whole blood; assay type: physicochemical, human
Description: To determine the ability of CT-17 to be retained in liposomal preparations,the agent was loaded into liposomes using the active loading methodology as described previously (U.S. Pat. No. 5,192,549). Two types of liposomes were used: 1) non-stealth liposomes and 2) stealth liposomes. The liposome preparations were then incubated in various biological fluids to determine drug retention in the particle. In these experiments the lipid distearoylphosphatidylcholine (DSPC) was obtained from Avanti Polar Lipids (Birmingham, AL) and cholesterol was from Nutritional Biochemicals Corp., Cleveland, Ohio. […] Solvent was evaporated at 55-60° C. on rotary evaporator for 15 min to form the lipid film. The residual solvent was then removed under high vacuum at room temperature overnight. The lipid film was hydrated using 5 ml of 0.1 M ammonium sulfate. MLVs were formed by shaking and occasional vortexing at 55-60° C. LUVs were formed by passing the liposomal suspension through two 100 nm stacked polycarbonate filters under 20 psi pressure of nitrogen using 11 passes at 55-60° C. (Liposo-Fast-Pneumatic from AVESTIN, Toronto, Canada).
FIG. 7 is a graphical comparison of the stability of the lactone form of the camptothecin drug CT-17 as a function of time. […]

topoisomerase I = test: Topoisomerase I mediated DNA cleavage (cleavable complex induction); assay type: biochemical
From the text: Evaluation of the Relative Abilities of the Novel Polyamine Camptothecin Analogs to Induce Topoisomerase I Mediated DNA Single Strand Breaks. We have evaluated the abilities of the novel compounds of the present invention to inhibit the topoisomerase I enzyme. In these experiments the oligonucleotide was labeled at the 3'-end of the upper (scissile) strand with 32P-α-cordycepin and terminal transferase (Pommier, Y., Kohlhagen, G., Kohn, F., Leteurtre, F., Wani, M. C., and Wall, M. E. Proc. Natl. Acad. Sci. U.S.A. 92:8861-8865, 1995). Topoisomerase I (Top1) cleavage generates a 23mer that can be easily detected by electrophoresis and quantitated by Phosphorimager analysis. Tanizawa et al. (Tanizawa, A., Kohn, K. W., Kohlhagen, G., Leteurtre, F., and Pommier, Y. Biochemistry […]:7200-7206, 1995) have previously shown that camptothecin derivatives differ in the manner in which they stabilize the top1 cleavable complexes that they induce. The novel polyamine camptothecins of the present invention were compared in this assay. 0.35M NaCl was added to force top 1-mediated DNA religation and DNA cleavage was measured at various times after NaCl addition. FIG. 9 is a typical phosphoimager picture showing the timecourse of the effects of various camptothecins on the relaxation of DNA in the presence of topoisomerase I. Topoisomerase I-mediated cleavage generates DNA fragments that can be readily detected by electrophoresis and quantitated by phosphorimager analysis.
FIG. 10 is a phosphoimager picture showing the dose response of various camptothecin compounds described in the present invention on the relaxation of DNA in the presence of topoisomerase I. Topoisomerase I-mediated cleavage generates DNA fragments that can be readily detected by electrophoresis and quantitated by phosphorimager analysis as shown.
FIG. 11 contains a phosphoimager picture (bottom figure) showing the dose response effects of several of the novel polyamine camptothecins of the current invention on the relaxation of DNA in the presence of topoisomerase I. Topoisomerase I-mediated cleavage generates DNA fragments that can be readily detected by electrophoresis and quantitated by phosphorimager analysis (top figure).

CC[C@@]1(O)C(=O)OCc2c1cc1n(c2=O)Cc2c-1nc1ccccc1c2CNN1CCN(C)CC1 [CT-17, 7-[N-(4-methyl-1-piperazino)aminomethyl]-(20S)-camptothecin]
hydrolysis of free drug to inactive carboxylate [1]: high rate and extensive amount of hydrolysis
potency at promoting DNA cleavage relative to camptothecin and SN-38 (topoisomerase I; FIG. 11 quantitation): somewhat less potent
distribution of cleavage sites vs camptothecin or SN-38 (topoisomerase I; topoisomerase I): comparable to those generated by camptothecin or 7-ethyl-10-hydroxycamptothecin (SN-38)
induction of cleavable complex formation (topoisomerase I; topoisomerase I, 3'-32P-labeled oligonucleotide): capable of inducing cleavable complex formation
